Measured values reported in PubChem BioAssay (NCI).
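Growth conditions: 96-well plates. Treatment: test compound, 48 hours, 5 concentrations. Analysis: linear interpolation between bracketing concentrations; unreached endpoints set to highest concentration. TGI is the concentration that stops growth completely.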

Assays:
Assay in all cases: inhibition of tumour cell growth, NCI panel, 48 h
786-0 renal = system: 786-0 renal
A498 renal = system: A498 renal
A549 NSCLC = system: A549 NSCLC
ACHN renal = system: ACHN renal
BT-549 breast = system: BT-549 breast
CAKI-1 renal = system: CAKI-1 renal
CCRF-CEM leukemia = system: CCRF-CEM leukemia
DU-145 prostate = system: DU-145 prostate
EKVX NSCLC = system: EKVX NSCLC
HCC-2998 colon = system: HCC-2998 colon
HCT-116 colon = system: HCT-116 colon
HCT-15 colon = system: HCT-15 colon
HOP-62 NSCLC = system: HOP-62 NSCLC
HOP-92 NSCLC = system: HOP-92 NSCLC
HS 578T breast = system: HS 578T breast
HT29 colon = system: HT29 colon
IGROV1 ovarian = system: IGROV1 ovarian
K-562 leukemia = system: K-562 leukemia
KM12 colon = system: KM12 colon
LOX IMVI melanoma = system: LOX IMVI melanoma
M14 melanoma = system: M14 melanoma
MALME-3M melanoma = system: MALME-3M melanoma
MCF7 breast = system: MCF7 breast
MDA-MB-231 breast = system: MDA-MB-231 breast
MDA-MB-435 = system: MDA-MB-435
MDA-N = system: MDA-N
MOLT-4 leukemia = system: MOLT-4 leukemia
NCI-H226 lung = system: NCI-H226 lung
NCI-H23 lung = system: NCI-H23 lung
NCI-H460 lung = system: NCI-H460 lung
NCI-H522 lung = system: NCI-H522 lung
NCI/ADR-RES ovarian = system: NCI/ADR-RES ovarian
OVCAR-3 ovarian = system: OVCAR-3 ovarian
OVCAR-4 ovarian = system: OVCAR-4 ovarian
OVCAR-5 ovarian = system: OVCAR-5 ovarian
OVCAR-8 ovarian = system: OVCAR-8 ovarian
PC-3 prostate = system: PC-3 prostate
RXF 393 renal = system: RXF 393 renal
SF-268 CNS = system: SF-268 CNS
SF-295 CNS = system: SF-295 CNS
SK-MEL-2 melanoma = system: SK-MEL-2 melanoma
SK-MEL-28 melanoma = system: SK-MEL-28 melanoma
SK-MEL-5 melanoma = system: SK-MEL-5 melanoma
SN12C renal = system: SN12C renal
SNB-19 CNS = system: SNB-19 CNS
SNB-75 CNS = system: SNB-75 CNS
SR leukemia = system: SR leukemia
SW-620 colon = system: SW-620 colon
T-47D breast = system: T-47D breast
TK-10 renal = system: TK-10 renal
U251 CNS = system: U251 CNS
UACC-257 melanoma = system: UACC-257 melanoma
UACC-62 melanoma = system: UACC-62 melanoma
UO-31 renal = system: UO-31 renal
COLO 205 colon = system: COLO 205 colon
DLD-1 colon = system: DLD-1 colon
DMS 114 small cell lung = system: DMS 114 small cell lung
DMS 273 small cell lung = system: DMS 273 small cell lung
HL-60(TB) leukemia = system: HL-60(TB) leukemia
KM20L2 colon = system: KM20L2 colon
M19-MEL melanoma = system: M19-MEL melanoma
RPMI-8226 leukemia = system: RPMI-8226 leukemia
SF-539 CNS = system: SF-539 CNS
SK-OV-3 ovarian = system: SK-OV-3 ovarian
XF 498 CNS = system: XF 498 CNS
LXFL 529 NSCLC = system: LXFL 529 NSCLC
SNB-78 CNS = system: SNB-78 CNS

Measured: TGI

N=C(N)c1ccc(/C=C/c2ccc(C(=N)N)cc2)cc1
73.7 µM: A498 renal
87.3 µM: SK-MEL-2 melanoma
65.2 µM: TK-10 renal
not listed: COLO 205 colon | DLD-1 colon | DMS 114 small cell lung | DMS 273 small cell lung | HL-60(TB) leukemia | KM20L2 colon | M19-MEL melanoma | RPMI-8226 leukemia | SF-539 CNS | SK-OV-3 ovarian | XF 498 CNS | LXFL 529 NSCLC | SNB-78 CNS
> 100 µM: all other assays above

CC(=O)OC(C)C(=O)C1c2cccc(O)c2C(=O)c2c(O)cc(C)cc21 (stereo not drawn)
1.5 µM: SF-268 CNS
0.497 µM: DMS 114 small cell lung
2.3 µM: SK-MEL-28 melanoma
1.35 µM: NCI-H460 lung
1.81 µM: SK-OV-3 ovarian
1.02 µM: HOP-92 NSCLC
2.28 µM: 786-0 renal
2.59 µM: OVCAR-5 ovarian
1.11 µM: A549 NSCLC | U251 CNS
1.03 µM: NCI-H226 lung
1.4 µM: UACC-257 melanoma
1.6 µM: SNB-19 CNS
8.17 µM: MOLT-4 leukemia
1.69 µM: HCC-2998 colon
0.744 µM: UO-31 renal
1.44 µM: SK-MEL-2 melanoma
1.15 µM: NCI-H23 lung
2.88 µM: TK-10 renal
0.813 µM: RXF 393 renal
2.72 µM: KM20L2 colon
3.02 µM: NCI-H522 lung
0.847 µM: HL-60(TB) leukemia
9.03 µM: K-562 leukemia
3.22 µM: DLD-1 colon
1.83 µM: SNB-75 CNS
5.98 µM: RPMI-8226 leukemia
3.01 µM: COLO 205 colon
3.68 µM: A498 renal
0.589 µM: SF-539 CNS
1.55 µM: HCT-15 colon
1.71 µM: SW-620 colon
1.56 µM: OVCAR-4 ovarian
1.19 µM: SF-295 CNS
3.03 µM: HT29 colon
1.23 µM: KM12 colon | M19-MEL melanoma
1.31 µM: SK-MEL-5 melanoma
4.09 µM: EKVX NSCLC
1.43 µM: OVCAR-3 ovarian
6.05 µM: CCRF-CEM leukemia
0.465 µM: XF 498 CNS
1.01 µM: HOP-62 NSCLC
2.24 µM: OVCAR-8 ovarian | SN12C renal
1.66 µM: IGROV1 ovarian
1.82 µM: LOX IMVI melanoma | MALME-3M melanoma
1.09 µM: HCT-116 colon
1.85 µM: ACHN renal | DMS 273 small cell lung

C1=CC2C=CC(C=C1)P2c1ccccc1 (stereo not drawn)
not listed: DLD-1 colon | DMS 114 small cell lung | DMS 273 small cell lung | KM20L2 colon | M19-MEL melanoma | XF 498 CNS | LXFL 529 NSCLC | SNB-78 CNS
> 100 µM: all other assays above

CCNC1C2(CCCCC2)NC(=O)C12CCCCC2 (stereo not drawn)
not listed: BT-549 breast | DU-145 prostate | HOP-92 NSCLC | HS 578T breast | LOX IMVI melanoma | MCF7 breast | MDA-MB-231 breast | MDA-MB-435 | MDA-N | NCI-H522 lung | NCI/ADR-RES ovarian | PC-3 prostate | SF-268 CNS | SN12C renal | SNB-19 CNS | SR leukemia | T-47D breast | COLO 205 colon
> 100 µM: all other assays above
